This is an account of results in ChEMBL document CHEMBL3272350, “Drugs derived from cannabinoids. 4. Effect of alkyl substitution in sulfur and carbocyclic analogs” (J Med Chem, 1976).

Data set [1] relates to Mus musculus. As to the kind of experiment: Antidepressant activity in mouse assessed as potentiation of dopa-induced motor responses at 5 mg/kg, po pretreated with compound followed by dopa challenge for 4 hrs. In kind it is functional, organism-based. Also noted: dose 5 mg/kg.
For data set [2], the system named is Canis familiaris. As to the kind of experiment: Antianxiety activity in dog assessed as decrease in reactivity and ataxia at 10 mg/kg, po administered as single dose measured every 15 mins for 24 hrs. In kind it is functional, organism-based. Also noted: dose 10 mg/kg. The conditions noted are these: Canis lupus familiaris.
The subject of data set [3] is Mus musculus. Nature of the data set: Anticonvulsant activity in mouse assessed as protection against audiogenic seizure at 10 mg/kg, po administered for 1 hr prior to testing relative to control. In kind it is functional.
The test system of data set [4] is Felis catus. As to the kind of experiment: Sedative-hypnotic activity in cat assessed as increase in total sleep time at 2 mg/kg, po administered with diet for 15 to 20 mins measured for 14 hrs. In kind it is functional.
Data set [5] in a line: Acute toxicity in po dosed Swiss-Webster mouse assessed as mortality measured for 7 days. In kind it is organism-based. As to conditions: in vivo.
Data set [6] has as its system Felis catus. As to the kind of experiment: Sedative-hypnotic activity in cat assessed as increase in total sleep time at 1 mg/kg, po administered with diet for 15 to 20 mins measured for 14 hrs. The data set is classed as functional.
Data set [7] relates to Mus musculus. Nature of the data set: Antianxiety activity in albino BALB/cJ mouse assessed as reduction of footshock-induced fighting behavior at 10 mg/kg, po after 90 mins relative to control. The data set is classed as functional. Also noted: scale not given: the % may be the effect or the level left.
For data set [8], the system named is Canis familiaris. Nature of the data set: Antianxiety activity in dog assessed as decrease in reactivity at 0.1 mg/kg, po administered as single dose measured every 15 mins for 24 hrs. In kind it is functional, organism-based. More on the design: dose 0.1 mg/kg. As to conditions: Canis lupus familiaris.
Data set [9] has as its system Mus musculus. Nature of the data set: Analgesic activity in po dosed mouse assessed as inhibition of acetic acid-induced writhing administered 30 mins prior to acetic acid challenge measured after 5 mins for 20 mins. The data set is classed as functional. A general note: An intraperitoneal irritant provokes the stretching counted in writhing tests.
Data set [10] deals with Felis catus. Nature of the data set: Sedative-hypnotic activity in cat assessed as increase in total sleep time at 0.5 mg/kg, po administered with diet for 15 to 20 mins measured for 14 hrs. The data set is classed as functional.
The test system of data set [11] is Canis familiaris. Nature of the data set: Antianxiety activity in dog assessed as decrease in reactivity at 1 mg/kg, po administered as single dose measured every 15 mins for 24 hrs. In kind it is functional, organism-based. More on the design: dose 1 mg/kg. The conditions noted are these: Canis lupus familiaris.
For data set [12], the system named is Mus musculus. As to the kind of experiment: Analgesic activity in po dosed mouse by hot-plate test. The data set is classed as functional. Background: Thermal pain tests record how soon the animal reacts.
In data set [13] the test system is Canis familiaris. As to the kind of experiment: Antianxiety activity in dog assessed as decrease in reactivity and ataxia at 1 mg/kg, po administered as single dose measured every 15 mins for 24 hrs. The data set is classed as functional, organism-based. Also noted: dose 1 mg/kg. As to conditions: Canis lupus familiaris.
The test system of data set [14] is Rattus norvegicus. As to the kind of experiment: Analgesic activity in po dosed Sprague-Dawley rat assessed as increase in pain threshold measured at 15 to 90 mins by tail-flick test. The data set is classed as functional.
Data set [15] has as its system Canis familiaris. Nature of the data set: Antianxiety activity in dog assessed as decrease in reactivity and ataxia at 0.1 mg/kg, po administered as single dose measured every 15 mins for 24 hrs. In kind it is functional, organism-based. More on the design: dose 0.1 mg/kg. As to conditions: Canis lupus familiaris.
Data set [16] deals with Felis catus. As to the kind of experiment: Sedative-hypnotic activity in cat assessed as increase in total sleep time at 0.25 mg/kg, po administered with diet for 15 to 20 mins measured for 14 hrs. The data set is classed as functional.
Data set [17] deals with Felis catus. As to the kind of experiment: Sedative-hypnotic activity in cat assessed as increase in total sleep time at 0.1 mg/kg, po administered with diet for 15 to 20 mins measured for 14 hrs. The data set is classed as functional.
For data set [18], the system named is Mus musculus. Nature of the data set: Anticonvulsant activity in mouse assessed as protection against audiogenic seizure at 30 mg/kg, po administered for 1 hr prior to testing relative to control. The data set is classed as functional.

Activity calls are given as the source filed them.

A word on the LD50: it is the dose at which mortality reaches 50%. In the case of `CCCCCC(C)C(C)c1cc(O)c2c(c1)OC(C)(C)C1=C2CCS1` (stereo not given), the outcome in data set [1], in data set [2] and in data set [8] was Active. Moreover, the Activity in data set [3] and in data set [7] was 33% in each case. Moreover, the Time in data set [4] worked out at 31 min; in [6] it was 30 min. In addition, the LD50 at 168 h in data set [5] was greater than 500 mg/kg.
For orientation: ED50 means the midpoint of the dose-response relation. In the case of `CCCCCC(C)C(C)c1cc(O)c2c(c1)OC(C)(C)C1=C2CC(C)(C)S1` (stereo not given), the result in data set [1] and in data set [2] was Active. The Activity in data set [3] and in [7] was 1% each time. Moreover, the LD50 at 168 h in data set [5] was greater than 500 mg/kg. Further, the ED50 in data set [9] is greater than 40 mg/kg.
With `CCCCCC(C)C(C)c1cc(O)c2c(c1)OC(C)(C)C1=C2CCC1` (stereo not given), the Time in [10] worked out at 59 min; in data set [4], 65 min. For the same compound, the outcome in [1], in [2] and in data set [11] was Active. For the same compound, the Activity in data set [3] amounted to 1%; in [7], 33%. Further, the ED50 in data set [12] turned out to be 45.1 mg/kg; in data set [9], 25.3 mg/kg. Besides, the LD50 at 168 h in [5] is greater than 500 mg/kg.
On to `CCCCCC(C)C(C)c1cc(O)c2c(c1)OC(C)(C)C1=C2CC(C)C1` (stereo not given), for which the outcome in data set [1], in data set [2] and in data set [13] was Active. For the same compound, the outcome in data set [3] was inactive. Further, the LD50 at 168 h in [5] is greater than 500 mg/kg. Also, in [9], the ED50 turned out to be 22.6 mg/kg. The Activity in data set [7] was found to be 1%.
With `CCCCCC(C)C(C)c1cc(O)c2c(c1)OC(C)(C)C1=C2CC(C)(C)C1` (stereo not given), the ED50 in data set [14] and in data set [9] was greater than 40 mg/kg throughout. The outcome in data set [1] and in data set [2] was Active. Besides, in data set [3], the outcome was inactive. In data set [5], the median lethal dose (LD50) at 168 h is greater than 500 mg/kg. Further, in data set [7], the Activity worked out at 33%.
With `CCCCCC(C)C(C)c1cc(O)c2c(c1)OC(C)(C)C1=C2CC(C)CC1` (stereo not given), the Time in data set [10] worked out at 62 min. Further, the result in [1], in data set [2] and in data set [13] was Active. The Activity in data set [3] and in data set [7] was 66% in each case. The ED50 was determined as 12.4 mg/kg in data set [12] and 19.6 mg/kg in data set [9]. In data set [5], the LD50 at 168 h was greater than 500 mg/kg.
Turning to `CCCCCC(C)C(C)c1cc(O)c2c(c1)OC(C)(C)C1=C2C(C)CC1` (stereo not given), the Time in data set [10] was 58 min. Besides, the outcome in data set [1], in [2] and in data set [13] was Active. The Activity in data set [3] and in data set [7] was 66% each time. Further, the LD50 at 168 h in data set [5] was greater than 500 mg/kg. Also, the ED50 in data set [9] was 13.3 mg/kg.
In the case of `CCCCCC(C)C(C)c1cc(O)c2c(c1)OC(C)(C)C1=C2CC(C)S1` (stereo not given), the result in data set [1] and in data set [2] was Active. Also, the Activity in [3] is given as 1%; in [7] it was 33%. Moreover, the LD50 at 168 h in data set [5] was greater than 500 mg/kg. In addition, the ED50 in [9] came to 34 mg/kg.
Take `CCCCCC(C)C(C)c1cc(O)c2c(c1)OC(C)(C)C1=C2C(C)CS1` (stereo not given): the result in data set [1], in [15] and in data set [13] was Active. Also, the Activity in data set [3] and in data set [7] was 33% in each case. The Time in data set [16] stood at 50 min; in [17] it was 21 min. Moreover, the ED50 in data set [12] is 1.4 mg/kg; in [9] it was 4.7 mg/kg. For the same compound, in data set [5], the LD50 at 168 h is greater than 500 mg/kg.
For `CCCCCC(C)C(C)c1cc(O)c2c(c1)OC(C)(C)C1=C2C(C)CCC1` (stereo not given), the Time in data set [10] stood at 54 min. For the same compound, the outcome in data set [1], in data set [2] and in data set [13] was Active. Further, the ED50 in data set [12] is 25 mg/kg; in [9] it was 10.5 mg/kg. In addition, the LD50 at 168 h in data set [5] is greater than 500 mg/kg. In addition, the Activity in [18] and in data set [7] was 33% throughout.
